The values that follow are results of earlier work, collected in patent US20080153925A1, “Use of Amphiphilic Copolymers as Solubilising Agents” (BASF Aktiengesellschaft, priority 2004, published 2008).

For the series the following is noted: literature values.

In brackets after ≈: the same amount, converted by molar mass.

In the case of `Nc1ccc(S(=O)(=O)Nc2nccs2)cc1` [Sulfathiazole], the “Solubility in water (without copolymer)” value is 445 µg/mL (≈ 1740 µM). Regarding `CCCCC(CC)COC(=O)c1ccc(Nc2nc(Nc3ccc(C(=O)OCC(CC)CCCC)cc3)nc(Nc3ccc(C(=O)OCC(CC)CCCC)cc3)n2)cc1` (centres unmarked) [Uvinul ® T150, tris(2-ethylhexyl) 4,4′,4″-(1,3,5-triazine-2,4,6-triyltriimino)trisbenzoate], the “Solubility in water (without copolymer)” value is 0.007 µg/mL (≈ 0.0085 µM).
